What was measured:
MCF-7 (Breast carcinoma) = assay: Microbubble attachment to cultured cells (flow chamber, inverted microscopy); assay type: cell-based
Protocol: To create BLM A5- and deglyco BLM A5-microbubbles, the synthesized biotinylated compounds (1, 2 and 32) were conjugated to Targestar^B Targeted Ultrasound Contrast Agents (Targeson). For each of these preparations, 400 μL of Coupling Reagent (Targeson) was added to 1.5 mL of conjugated Targestar^B microbubbles and incubated for 20 min at room temperature, with gentle agitation every 5 min. The resulting product was divided into two syringes, each rinsed with 1.75 mL of Infusion Buffer, and then centrifuged for 3 min (400×g, 10° C.). The infranatant was then drained to 1 mL. For each separate preparation, […] containing 50 nM of the biotinylated compound was added to one of the vials and both were incubated at room temperature for 20 min with gentle agitation every 5 min. To each sample was added 1.75 mL of Infusion Buffer before centrifugation for 3 min at 400×g (10° C.). This solution was then drained to 1.0 mL before recovery of the supernatant and repetition of the previous step. Finally, the supernatant was resuspended in Infusion Buffer to a final volume of 2.0 mL.
Attachment of the (biotinylated BLM A5-, biotinylated deglyco BLM A5-, and biotinylated BLM A5 disaccharide-conjugated) microbubbles to the cultured cancer cells was imaged using an inverted microscope Zeiss Axiovert 200M fitted with an AxioCam MRm camera. […]

[1] = test system: A-549 lung carcinoma cells; assay: Visualization of cell association of fluorescent-disaccharide probe (fluorescence microscopy); assay type: cell-based; details: 1 fM, five minutes at 37° C.; A-549 compared with CCL-75 normal lung fibroblasts; FIG. 5
Protocol: In this case, we tethered a non-fluorescent pro-fluorophore, 5(6)-carboxyfluorescein diacetate (CFSE) onto the disaccharide of bleomycin to create a BLM-sugar probe. This fluorophore should only fluoresce when acted upon by the cell, where intracellular esterases cleave the acetate groups allowing for detectable fluorescence.
Both A-549 lung carcinoma cells and CCL-75 normal lung fibroblasts were seeded on 35 mm glass cover slips at a density of 2.5×10^5 cells before incubating 48 hours to allow attachment and growth. A total effective concentration of 1 fM of the fluorescent-sugar derivative (34) and 5(6)-carboxyfluorescein diacetate N-succinimidyl ester (CFSE) compounds were added to cover slips of each cell type before incubation for five minutes at 37° C. To prepare slides for microscopy viewing, cover slips were washed in PBS and 70% ethanol solution before fixation in Histochoice MB Fixative (Electron Microscopy Sciences, Hatfield, Pa.) for 15 minutes. Fixed cover slips were mounted onto glass slides for viewing. Using the Zeiss Axiovert 200M inverted microscope (Apotome camera), fluorescent images were acquired using DIC (at 35 ms exposure time) and appropriate fluorescence filter at 470-490 nm excitation (761 ms exposure time), 40× objective magnification.

Compound	Microbubble attachment to MCF-7 cells (in words) (MCF-7 (Breast carcinoma); MCF-7 breast carcinoma cells, compound conjugated to microbubble, FIG. 3/4)	Preferential attachment, tumor over normal cells (MCF-7 (Breast carcinoma); MCF-7 versus MCF-10A, conjugated onto the microbubble, FIG. 4a)	Fluorescence of cells after exposure to compound [1]
NC(=O)O[C@@H]1[C@H](O)[C@@H](O[C@@H]2[C@H](OCCOCCNC(=O)CCCC[C@@H]3SC[C@@H]4NC(=O)N[C@@H]43)O[C@@H](CO)[C@@H](O)[C@@H]2O)O[C@H](CO)[C@H]1O [Compound 32, (2R,3S,4S,5R,6R)-2-((2R,3S,4S,5S,6S)-4,5-dihydroxy-6-(hydroxymethyl)-2-(2-(2-(5-((3aS,4S,6aR)-2-oxohexahydro-1H-thieno[3,4-d]imidazol-4-yl)pentanamido)ethoxy)ethoxy)tetrahydro-2H-pyran-3-yloxy)-3,5-dihydroxy-6-(hydroxymethyl)tetrahydro-2H-pyran-4-yl Carbamate]	greater attachment than biotinylated bleomycin A5	preferential attachment to MCF-7 tumor cells over MCF-10A cells	–
CC(=O)Oc1ccc2c(c1)Oc1cc(OC(C)=O)ccc1C21OC(=O)c2cc(C(=O)NCCOCCO[C@@H]3O[C@@H](CO)[C@@H](O)[C@H](O)[C@@H]3O[C@H]3O[C@H](CO)[C@@H](O)[C@H](OC(N)=O)[C@@H]3O)ccc21 [Compound 34, (4,5)-(2-(2-((2R,3S,4S,5S,6S)-3-((2R,3S,4S,5R,6R)-4-(Carbamoyloxy)-3,5-dihydroxy-6-(hydroxymethyl)tetrahydro-2H-pyran-2-yloxy)-4,5-dihydroxy-6-(hydroxymethyl)tetrahydro-2H-pyran-2-yloxy)ethoxy)ethylcarbamoyl)-3-oxo-3H-spiro[isobenzofuran-1,9′-xanthene]-3′,6′-diyl Diacetate]	–	–	highest fluorescence only in the tumor cell line
5(6)-carboxyfluorescein diacetate N-succinimidyl ester [CFSE, reference compound]	–	–	lack of marked fluorescence
